# Patent publication US12077503B2, “Substituted cyclic amides and their use as herbicides” (FMC CORPORATION, priority 2015, dated 2024)
# Assays:
# Format in all cases: in vivo
# [1] = tested on: giant foxtail (Setaria faberi); test: Test G Pre-Emergence Protocol; settings: Setaria faberi, pre-emergence, 312 h, evaluated after 13 days; for pest or weed control at 15.625 g/ha: 15.625 g ai/ha; for pest or weed control at 15.625 g/ha / pest or weed control at 250 g/ha: read-out: Foxtail, Giant damage rating (100=total damage to plant; 0=no damage to plant); for pest or weed control at 62.5 g/ha: 62.5 g ai/ha, 100=total damage to plant, 0=no damage to plant, read-out: plant damage rating, Foxtail, Giant; for pest or weed control at 250 g/ha: 250 g ai/ha
# How it was run: (§1)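 Seeds were sown in standard soil and kept one day in a glasshouse (24/16° C day/night, 14 h light, 65% humidity), then sprayed with compound in acetone/water (50:50) containing 0.5% Tween 20 at 15.625, 62.5 or 250 g/ha. Damage was scored after 13 days (0 = none, 100 = total).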
# corn (Zea mays) [2] = test: Test G Pre-Emergence Protocol; settings: Zea mays, pre-emergence, 312 h, evaluated after 13 days; for plant injury at 15.625 g/ha: 15.625 g ai/ha; for plant injury at 15.625 g/ha / plant injury at 250 g/ha: read-out: Corn damage rating (100=total damage to plant; 0=no damage to plant); for plant injury at 62.5 g/ha: 62.5 g ai/ha, 100=total damage to plant, 0=no damage to plant, read-out: plant damage rating, Corn; for plant injury at 250 g/ha: 250 g ai/ha
# How it was run: as §1
# [3] = tested on: barnyardgrass (Echinochloa crus-galli); test: Test G Pre-Emergence Protocol; settings: Echinochloa crus-galli, pre-emergence, 312 h, evaluated after 13 days; for pest or weed control at 15.625 g/ha: 15.625 g ai/ha, read-out: Barnyard grass damage rating (100=total damage to plant; 0=no damage to plant); for pest or weed control at 62.5 g/ha: 62.5 g ai/ha, 100=total damage to plant, 0=no damage to plant, read-out: plant damage rating, Barnyardgrass; for pest or weed control at 250 g/ha: 250 g ai/ha, read-out: Barnyardgrass damage rating (100=total damage to plant; 0=no damage to plant)
# How it was run: as §1
# [4] = tested on: velvetleaf (Abutilon theophrasti); test: Test G Pre-Emergence Protocol; settings: Abutilon theophrasti, pre-emergence, 312 h, evaluated after 13 days; for pest or weed control at 15.625 g/ha: 15.625 g ai/ha; for pest or weed control at 15.625 g/ha / pest or weed control at 250 g/ha: read-out: Velvetleaf damage rating (100=total damage to plant; 0=no damage to plant); for pest or weed control at 62.5 g/ha: 62.5 g ai/ha, 100=total damage to plant, 0=no damage to plant, read-out: plant damage rating, Velvetleaf; for pest or weed control at 250 g/ha: 250 g ai/ha
# How it was run: as §1
# [5] = tested on: redroot pigweed (Amaranthus retroflexus); test: Test G Pre-Emergence Protocol; settings: Amaranthus retroflexus, pre-emergence, 312 h, evaluated after 13 days; for pest or weed control at 15.625 g/ha: 15.625 g ai/ha; for pest or weed control at 15.625 g/ha / pest or weed control at 250 g/ha: read-out: Pigweed, Redroot damage rating (100=total damage to plant; 0=no damage to plant); for pest or weed control at 62.5 g/ha: 62.5 g ai/ha, 100=total damage to plant, 0=no damage to plant, read-out: plant damage rating, Pigweed, Redroot; for pest or weed control at 250 g/ha: 250 g ai/ha
# How it was run: as §1
# [6] = tested on: ivy-leaved morning glory (Ipomoea hederacea); test: Test G Pre-Emergence Protocol; settings: Ipomoea, pre-emergence, 312 h, evaluated after 13 days; for pest or weed control at 15.625 g/ha: 15.625 g ai/ha, read-out: Morning-glory, Ivy-leaved damage rating (100=total damage to plant; 0=no damage to plant); for pest or weed control at 62.5 g/ha: 62.5 g ai/ha, 100=total damage to plant, 0=no damage to plant, read-out: plant damage rating, Morningglory, Ivy-leaved; for pest or weed control at 250 g/ha: 250 g ai/ha, read-out: Morningglory, Ivy-leaved damage rating (100=total damage to plant; 0=no damage to plant)
# How it was run: as §1
# [7] = tested on: giant foxtail (Setaria faberi); test: Test G Post-Emergence Protocol; settings: Setaria faberi, post-emergence, 312 h; for pest or weed control at 15.625 g/ha: 15.625 g ai/ha, evaluated after 13 days (100=total damage to plant; 0=no damage to plant), read-out: Foxtail, Giant damage rating; for pest or weed control at 62.5 g/ha: 62.5 g ai/ha, read-out: Foxtail, Giant damage rating (100=total damage to plant; 0=no damage to plant); for pest or weed control at 62.5 g/ha / pest or weed control at 250 g/ha: evaluated after 13 days; for pest or weed control at 250 g/ha: 250 g ai/ha, read-out: damage to plant, Foxtail, Giant (100=total damage to plant; 0=no damage to plant)
# How it was run: (§2)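 Damage was rated 13 days after treatment from 0 (none) to 100 (plant killed). Compound was applied as a spray at 15.625, 62.5 or 250 g/ha in 50:50 acetone/water containing 0.5% Tween 20, onto 8-day-old potted plants kept in a glasshouse (24/16 °C, 14 h light, 65% humidity).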
# corn (Zea mays) [8] = test: Test G Post-Emergence Protocol; settings: Zea mays, post-emergence, 312 h; for plant injury at 15.625 g/ha: 15.625 g ai/ha, evaluated after 13 days (100=total damage to plant; 0=no damage to plant), read-out: Corn damage rating; for plant injury at 62.5 g/ha: 62.5 g ai/ha, read-out: Corn damage rating (100=total damage to plant; 0=no damage to plant); for plant injury at 62.5 g/ha / plant injury at 250 g/ha: evaluated after 13 days; for plant injury at 250 g/ha: 250 g ai/ha, read-out: damage to plant, Corn (100=total damage to plant; 0=no damage to plant)
# How it was run: as §2
# [9] = tested on: barnyardgrass (Echinochloa crus-galli); test: Test G Post-Emergence Protocol; settings: Echinochloa crus-galli, post-emergence, 312 h; for pest or weed control at 15.625 g/ha: 15.625 g ai/ha, evaluated after 13 days (100=total damage to plant; 0=no damage to plant), read-out: Barnyardgrass damage rating; for pest or weed control at 62.5 g/ha: 62.5 g ai/ha, read-out: Barnyardgrass damage rating (100=total damage to plant; 0=no damage to plant); for pest or weed control at 62.5 g/ha / pest or weed control at 250 g/ha: evaluated after 13 days; for pest or weed control at 250 g/ha: 250 g ai/ha, read-out: damage to plant, Barnyardgrass (100=total damage to plant; 0=no damage to plant)
# How it was run: as §2
# [10] = tested on: velvetleaf (Abutilon theophrasti); test: Test G Post-Emergence Protocol; settings: Abutilon theophrasti, post-emergence, 312 h; for pest or weed control at 15.625 g/ha: 15.625 g ai/ha, evaluated after 13 days (100=total damage to plant; 0=no damage to plant), read-out: Velvetleaf damage rating; for pest or weed control at 62.5 g/ha: 62.5 g ai/ha, read-out: Velvetleaf damage rating (100=total damage to plant; 0=no damage to plant); for pest or weed control at 62.5 g/ha / pest or weed control at 250 g/ha: evaluated after 13 days; for pest or weed control at 250 g/ha: 250 g ai/ha, read-out: damage to plant, Velvetleaf (100=total damage to plant; 0=no damage to plant)
# How it was run: as §2
# [11] = tested on: redroot pigweed (Amaranthus retroflexus); test: Test G Post-Emergence Protocol; settings: Amaranthus retroflexus, post-emergence, 312 h; for pest or weed control at 15.625 g/ha: 15.625 g ai/ha, evaluated after 13 days (100=total damage to plant; 0=no damage to plant), read-out: Pigweed, Redroot damage rating; for pest or weed control at 62.5 g/ha: 62.5 g ai/ha, read-out: Pigweed, Redroot damage rating (100=total damage to plant; 0=no damage to plant); for pest or weed control at 62.5 g/ha / pest or weed control at 250 g/ha: evaluated after 13 days; for pest or weed control at 250 g/ha: 250 g ai/ha, read-out: damage to plant, Pigweed, Redroot (100=total damage to plant; 0=no damage to plant)
# How it was run: as §2
# [12] = tested on: ivy-leaved morning glory (Ipomoea hederacea); test: Test G Post-Emergence Protocol; settings: Ipomoea, post-emergence, 312 h; for pest or weed control at 15.625 g/ha: 15.625 g ai/ha, evaluated after 13 days (100=total damage to plant; 0=no damage to plant), read-out: Morningglory, Ivy-leaved damage rating; for pest or weed control at 62.5 g/ha: 62.5 g ai/ha, read-out: Morningglory, Ivy-leaved damage rating (100=total damage to plant; 0=no damage to plant); for pest or weed control at 62.5 g/ha / pest or weed control at 250 g/ha: evaluated after 13 days; for pest or weed control at 250 g/ha: 250 g ai/ha, read-out: damage to plant, Morningglory, Ivy-leaved (100=total damage to plant; 0=no damage to plant)
# How it was run: as §2
Structure (SMILES),pest or weed control at 15.625 g/ha [1] [%],pest or weed control at 62.5 g/ha [1] [%],pest or weed control at 250 g/ha [1] [%],plant injury at 15.625 g/ha (corn (Zea mays) [2]) [%],plant injury at 62.5 g/ha (corn (Zea mays) [2]) [%],plant injury at 250 g/ha (corn (Zea mays) [2]) [%],pest or weed control at 15.625 g/ha [3] [%],pest or weed control at 62.5 g/ha [3] [%],pest or weed control at 250 g/ha [3] [%],pest or weed control at 15.625 g/ha [4] [%],pest or weed control at 62.5 g/ha [4] [%],pest or weed control at 250 g/ha [4] [%],pest or weed control at 15.625 g/ha [5] [%],pest or weed control at 62.5 g/ha [5] [%],pest or weed control at 250 g/ha [5] [%],pest or weed control at 15.625 g/ha [6] [%],pest or weed control at 62.5 g/ha [6] [%],pest or weed control at 250 g/ha [6] [%],pest or weed control at 15.625 g/ha [7] [%],pest or weed control at 62.5 g/ha [7] [%],other results
CN1C[C@@H](c2ccc(C(F)(F)F)cc2)[C@H](C(=O)Nc2nccs2)C1=O (racemic) [Compound 1554],0,0,20,0,0,0,0,0,10,0,0,0,0,0,30,0,0,0,0,0,pest or weed control at 250 g/ha [7]: 0%; plant injury at 15.625 g/ha (corn (Zea mays) [8]): 0%; plant injury at 62.5 g/ha (corn (Zea mays) [8]): 0%; plant injury at 250 g/ha (corn (Zea mays) [8]): 0%; pest or weed control at 15.625 g/ha [9]: 0%; pest or weed control at 62.5 g/ha [9]: 0%; pest or weed control at 250 g/ha [9]: 0%; pest or weed control at 15.625 g/ha [10]: 0%; pest or weed control at 62.5 g/ha [10]: 0%; pest or weed control at 250 g/ha [10]: 0%; pest or weed control at 15.625 g/ha [11]: 0%; pest or weed control at 62.5 g/ha [11]: 0%; pest or weed control at 250 g/ha [11]: 0%; pest or weed control at 15.625 g/ha [12]: 0%; pest or weed control at 62.5 g/ha [12]: 0%; pest or weed control at 250 g/ha [12]: 0%
C=CCc1c(Cl)cccc1NC(=O)[C@H]1C(=O)N(C)C[C@H]1c1ccc(C(F)(F)F)cc1 (racemic) [Compound 1439],0,0,50,0,0,0,0,0,40,0,0,0,0,0,0,0,0,0,0,20,pest or weed control at 250 g/ha [7]: 60%; plant injury at 15.625 g/ha (corn (Zea mays) [8]): 10%; plant injury at 62.5 g/ha (corn (Zea mays) [8]): 10%; plant injury at 250 g/ha (corn (Zea mays) [8]): 10%; pest or weed control at 15.625 g/ha [9]: 0%; pest or weed control at 62.5 g/ha [9]: 0%; pest or weed control at 250 g/ha [9]: 10%; pest or weed control at 15.625 g/ha [10]: 0%; pest or weed control at 62.5 g/ha [10]: 0%; pest or weed control at 250 g/ha [10]: 0%; pest or weed control at 15.625 g/ha [11]: 0%; pest or weed control at 62.5 g/ha [11]: 0%; pest or weed control at 250 g/ha [11]: 40%; pest or weed control at 15.625 g/ha [12]: 0%; pest or weed control at 62.5 g/ha [12]: 0%; pest or weed control at 250 g/ha [12]: 0%
CN1C[C@H](c2ccc(C(F)(F)F)cc2)[C@](C)(C(=O)Nc2cccc(F)c2F)C1=O (racemic) [Compound 1406],0,0,0,0,0,0,0,0,0,0,0,0,0,0,0,0,0,0,0,0,pest or weed control at 250 g/ha [7]: 0%; plant injury at 15.625 g/ha (corn (Zea mays) [8]): 20%; plant injury at 62.5 g/ha (corn (Zea mays) [8]): 0%; plant injury at 250 g/ha (corn (Zea mays) [8]): 10%; pest or weed control at 15.625 g/ha [9]: 0%; pest or weed control at 62.5 g/ha [9]: 0%; pest or weed control at 250 g/ha [9]: 20%; pest or weed control at 15.625 g/ha [10]: 0%; pest or weed control at 62.5 g/ha [10]: 20%; pest or weed control at 250 g/ha [10]: 20%; pest or weed control at 15.625 g/ha [11]: 0%; pest or weed control at 62.5 g/ha [11]: 40%; pest or weed control at 250 g/ha [11]: 20%; pest or weed control at 15.625 g/ha [12]: 0%; pest or weed control at 62.5 g/ha [12]: 10%; pest or weed control at 250 g/ha [12]: 0%
